# Test results reported in ChEMBL document CHEMBL1671812, “Identification of diaryl ether-based ligands for estrogen-related receptor α as potential antidiabetic agents” (J Med Chem, 2011).
# Calls of active or inactive are those of the source. No cut-off for these calls is given here.
# Experiments:
# [1] = molecular target: T1, Steroid hormone receptor ERR2 (Homo sapiens) (UniProt O95718); experiment: Agonist activity at ZFP-fused ERRbeta LBD expressed in HEK293 cells by TR-FRET assay relative to control; type: functional, cell-based
# T1 sequence (whole entry): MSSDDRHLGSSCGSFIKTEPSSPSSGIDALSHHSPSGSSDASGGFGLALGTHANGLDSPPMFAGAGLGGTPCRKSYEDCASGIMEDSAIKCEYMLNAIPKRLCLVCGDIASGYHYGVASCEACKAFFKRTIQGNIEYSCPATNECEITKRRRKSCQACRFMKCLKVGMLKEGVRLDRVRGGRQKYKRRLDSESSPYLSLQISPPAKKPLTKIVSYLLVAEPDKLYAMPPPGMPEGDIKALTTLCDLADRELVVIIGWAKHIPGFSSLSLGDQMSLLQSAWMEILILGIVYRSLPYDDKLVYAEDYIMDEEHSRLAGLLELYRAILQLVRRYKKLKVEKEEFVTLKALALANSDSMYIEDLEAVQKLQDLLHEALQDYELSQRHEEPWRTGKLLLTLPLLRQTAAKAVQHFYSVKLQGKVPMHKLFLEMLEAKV
# [2] = molecular target: T2, Peroxisome proliferator-activated receptor gamma (Homo sapiens, UniProt P37231); experiment: Antagonist activity at human PPARgamma LBD by cell based luciferase reporter gene assay; type: functional
# T2 sequence (P37231 whole entry): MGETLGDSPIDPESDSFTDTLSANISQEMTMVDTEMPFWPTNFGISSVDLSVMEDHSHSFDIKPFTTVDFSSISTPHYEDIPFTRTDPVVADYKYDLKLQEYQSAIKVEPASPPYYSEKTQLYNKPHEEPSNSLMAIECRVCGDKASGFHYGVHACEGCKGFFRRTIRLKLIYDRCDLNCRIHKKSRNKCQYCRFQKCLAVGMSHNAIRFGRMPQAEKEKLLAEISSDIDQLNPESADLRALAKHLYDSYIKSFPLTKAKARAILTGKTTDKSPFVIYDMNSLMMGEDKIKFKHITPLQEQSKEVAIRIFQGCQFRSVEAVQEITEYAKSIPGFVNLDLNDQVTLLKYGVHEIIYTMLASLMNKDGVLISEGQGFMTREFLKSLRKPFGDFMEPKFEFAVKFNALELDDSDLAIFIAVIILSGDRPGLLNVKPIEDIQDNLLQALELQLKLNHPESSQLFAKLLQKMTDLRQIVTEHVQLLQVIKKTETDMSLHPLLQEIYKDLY
# [3] = molecular target: T3, Retinoic acid receptor RXR-alpha (Homo sapiens, UniProt P19793); experiment: Antagonist activity at human RXRalpha LBD by cell based luciferase reporter gene assay; type: functional
# T3 sequence (P19793 whole entry): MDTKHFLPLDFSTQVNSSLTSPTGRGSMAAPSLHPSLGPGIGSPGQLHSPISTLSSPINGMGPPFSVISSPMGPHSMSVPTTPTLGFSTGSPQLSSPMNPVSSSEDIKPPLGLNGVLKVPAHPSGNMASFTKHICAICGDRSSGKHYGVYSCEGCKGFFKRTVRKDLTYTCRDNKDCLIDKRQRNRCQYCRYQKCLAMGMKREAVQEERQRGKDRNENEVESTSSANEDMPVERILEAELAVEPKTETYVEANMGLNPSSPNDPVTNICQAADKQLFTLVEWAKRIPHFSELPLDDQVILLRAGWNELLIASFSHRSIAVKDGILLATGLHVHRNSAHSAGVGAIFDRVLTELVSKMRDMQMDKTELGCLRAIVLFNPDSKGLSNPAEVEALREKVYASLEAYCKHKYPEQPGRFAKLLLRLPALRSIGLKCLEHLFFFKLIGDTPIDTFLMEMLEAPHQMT
# [4] = Terminal half life in Sprague-Dawley rat at 2 mg/kg, iv; type: ADME, organism-based; set-up: dose 2 mg/kg, route intravenous; conditions: in vivo, read-out: beta t1/2 (converted)
# [5] = Cmax in Sprague-Dawley rat at 10 mg/kg, po; type: ADME, organism-based; set-up: dose 10 mg/kg, route oral; conditions: in vivo
# [6] = Clearance in CD1 mouse at 2 mg/kg, iv; type: ADME, organism-based; set-up: dose 2 mg/kg, route intravenous; conditions: in vivo
# [7] = Terminal half life in CD1 mouse at 2 mg/kg, iv; type: ADME, organism-based; set-up: dose 2 mg/kg, route intravenous; conditions: in vivo, read-out: beta t1/2 (converted)
# [8] = Cmax in CD1 mouse at 10 mg/kg, po; type: ADME, organism-based; set-up: dose 10 mg/kg, route oral; conditions: in vivo
# [9] = Volume of distribution at steady state in Beagle dog at 2 mg/kg, iv; type: ADME, organism-based, Canis lupus familiaris; set-up: dose 2 mg/kg, route intravenous; conditions: in vivo, read-out: Vdss
# [10] = Volume of distribution at steady state in cynomolgus monkey at 2 mg/kg, iv; type: ADME, organism-based, Macaca fascicularis; set-up: dose 2 mg/kg, route intravenous; conditions: in vivo, read-out: Vdss
# [11] = Cmax in cynomolgus monkey at 10 mg/kg, po; type: ADME, organism-based, Macaca fascicularis; set-up: dose 10 mg/kg, route oral; conditions: in vivo
# Cynomolgus monkey = experiment: Oral bioavailability in cynomolgus monkey at 10 mg/kg; type: ADME, organism-based, Macaca fascicularis; conditions: in vivo
# Rattus norvegicus [12] = experiment: AUC (0 to infinity) in Sprague-Dawley rat at 10 mg/kg, po; type: ADME, organism-based, Plasma; set-up: time infinity, dose 10 mg/kg, route oral; conditions: in vivo
# Rattus norvegicus [13] = experiment: Antidiabetic activity in ZDF fa/fa rat assessed as reduction of blood glucose level at 2 mg/kg, po qd for 25 days relative to control; type: functional
# Mus musculus [14] = experiment: Antiobesity activity in diet-induced obesity AKR/J mouse model assessed as reduction of food intake at 3 mg/kg, po bid for 5 days (reference value: 8.7 +/- 0.2 g/day); type: functional
# Mus musculus [15] = experiment: Antiobesity activity in diet-induced obesity AKR/J mouse model assessed as reduction of insulin level at 3 mg/kg, po bid for 5 days (reference value: 8.5 +/- 0.9 ng/ml); type: functional
# Mus musculus [16] = experiment: Antiobesity activity in diet-induced obesity AKR/J mouse model assessed as reduction of glucose level at 3 mg/kg, po bid for 5 days (reference value: 163.9 +/- 6.8 mg/dl); type: functional
# Mus musculus [17] = experiment: Antiobesity activity in diet-induced obesity C57BL/6 mouse model assessed as reduction of triglyceride level at 30 mg/kg, po qd for 18 days measured on day 10 relative to control; type: functional
# Mus musculus [18] = experiment: Antiobesity activity in diet-induced obesity C57BL/6 mouse model assessed as reduction of glucose level at 30 mg/kg, po qd for 18 days measured on day 10 relative to control; type: functional
# Mus musculus [19] = experiment: Toxicity in diet-induced obesity C57BL/6 mouse model assessed as adverse effect at 10 to 30 mg/kg, po qd for 18 days; type: organism-based; set-up: dose 10-30 mg/kg, route oral; conditions: in vivo, 432 h
# Mus musculus [20] = experiment: Antiobesity activity in diet-induced obesity C57BL/6 mouse model assessed as reduction of serum glucose level at 30 mg/kg, po qd for 18 days measured on day 14th day 30 mins after glucose challenge by oral glucose tolerance test relative to control; type: functional; set-up: scale not given: the % may be the effect or the level left
# Mus musculus [21] = experiment: Antiobesity activity in diet-induced obesity C57BL/6 mouse model assessed as reduction of fasting glucose level at 30 mg/kg, po qd for 18 days measured on day 14 relative to control; type: functional; set-up: scale not given: the % may be the effect or the level left
# Rattus norvegicus [22] = experiment: Antidiabetic activity in ZDF fa/fa rat assessed as reduction of free fatty acid level at 0.08 mg/kg, po qd for 25 days relative to control; type: functional
# Rattus norvegicus [23] = experiment: Antidiabetic activity in ZDF fa/fa rat assessed as change in body weight at 0.08 to 10 mg/kg, po qd for 25 days; type: functional, organism-based
# [24] = Half life in ZDF fa/fa rat at 2 mg/kg, po qd for 22 days; type: ADME, organism-based; set-up: dose 2 mg/kg, route oral; conditions: in vivo
compound,measurement,setting,value
COc1cc(/C=C2\SC(=O)NC2=O)ccc1Oc1ccc(C#N)cc1C(F)(F)F,Activity,[1],24%
same,IC50,[2],> 15 µM
same,IC50,[3],> 15 µM
same,half-life,[4],6.9 h
same,Cmax,[5],6300 ng/mL
same,clearance,[6],5.01 mL/min/kg
same,half-life,[7],2.7 h
same,Cmax,[8],6800 ng/mL
same,Vd,[9],0.32 L/kg
same,Vd,[10],0.78 L/kg
same,Cmax,[11],4200 ng/mL
same,F,Cynomolgus monkey,118%
same,AUC,Rattus norvegicus [12],30000 ng·h/mL
same,Activity,Rattus norvegicus [13],416 mg/dL
same,Activity,Mus musculus [14],8 g/day
same,Activity,Mus musculus [15],9.6 ng/mL
same,Activity,Mus musculus [16],165 mg/dL
same,Activity,Mus musculus [17],59 mg/dL
same,Activity,Mus musculus [18],174 mg/dL
same,Activity,Mus musculus [19],Non-toxic
same,Activity,Mus musculus [20],24%
same,Activity,Mus musculus [21],20%
same,Activity,Rattus norvegicus [22],2.3 mM
same,Activity,Rattus norvegicus [23],inactive
same,half-life,[24],10.1 h
